Results published in ChEMBL document CHEMBL1132759, “The flavanolignan silybin and its hemisynthetic derivatives, a novel series of potential modulators of P-glycoprotein” (Bioorg Med Chem Lett, 2000).
pKd: −log10 of the molar value.

Legend:
[1] = molecular target: ATP-dependent translocase ABCB1 (Mus musculus, UniProt P21447); experiment: Compound was tested for the binding affinity towards recombinant NBD2 C-terminal cytosolic nucleotide-binding domain of mouse P-Glycoprotein
[2] = Change in Fmax was determined; type: functional

Chain of ATP-dependent translocase ABCB1 (P21447 whole entry, the tested form may be a part): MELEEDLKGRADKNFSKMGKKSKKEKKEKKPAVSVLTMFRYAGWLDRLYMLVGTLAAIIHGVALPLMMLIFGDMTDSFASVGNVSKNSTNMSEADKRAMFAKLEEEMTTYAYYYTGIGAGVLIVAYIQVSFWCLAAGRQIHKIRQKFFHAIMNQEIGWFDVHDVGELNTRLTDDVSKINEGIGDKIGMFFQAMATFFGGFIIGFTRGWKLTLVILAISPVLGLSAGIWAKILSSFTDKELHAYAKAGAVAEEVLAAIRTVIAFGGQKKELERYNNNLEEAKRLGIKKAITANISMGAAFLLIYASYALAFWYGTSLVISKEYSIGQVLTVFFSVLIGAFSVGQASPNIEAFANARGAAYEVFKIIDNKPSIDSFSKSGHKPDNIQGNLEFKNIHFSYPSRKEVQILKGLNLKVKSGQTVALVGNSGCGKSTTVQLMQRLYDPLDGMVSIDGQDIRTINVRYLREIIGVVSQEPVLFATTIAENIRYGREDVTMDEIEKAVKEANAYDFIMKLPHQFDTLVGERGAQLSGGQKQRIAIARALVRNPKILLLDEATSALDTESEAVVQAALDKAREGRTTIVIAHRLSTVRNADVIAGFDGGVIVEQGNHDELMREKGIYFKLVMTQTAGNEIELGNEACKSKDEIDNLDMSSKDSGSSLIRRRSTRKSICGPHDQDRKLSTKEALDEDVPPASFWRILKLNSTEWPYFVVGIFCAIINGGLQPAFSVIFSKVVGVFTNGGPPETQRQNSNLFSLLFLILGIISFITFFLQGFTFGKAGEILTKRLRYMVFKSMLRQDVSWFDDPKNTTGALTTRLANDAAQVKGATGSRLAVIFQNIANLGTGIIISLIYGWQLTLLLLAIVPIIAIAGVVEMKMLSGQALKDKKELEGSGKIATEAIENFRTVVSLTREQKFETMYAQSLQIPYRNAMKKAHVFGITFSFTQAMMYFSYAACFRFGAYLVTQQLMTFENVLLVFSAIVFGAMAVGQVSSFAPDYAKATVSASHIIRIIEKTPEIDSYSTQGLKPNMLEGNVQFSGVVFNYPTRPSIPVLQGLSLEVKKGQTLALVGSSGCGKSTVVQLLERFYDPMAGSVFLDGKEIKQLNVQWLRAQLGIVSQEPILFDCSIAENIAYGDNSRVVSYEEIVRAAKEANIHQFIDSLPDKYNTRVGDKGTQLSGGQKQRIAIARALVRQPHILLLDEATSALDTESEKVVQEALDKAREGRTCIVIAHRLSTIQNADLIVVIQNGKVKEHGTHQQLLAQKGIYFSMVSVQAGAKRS

SMILES | pKd [1] | Delta Fmax [2] [%]
COc1cc(C2Oc3cc([C@H]4Oc5cc(O)cc(O)c5C(=O)[C@@H]4O)ccc3OC2CO)ccc1O (some centres undefined) [SILIBININ] | 5.17 | 91
COc1ccc(-c2oc3cc(O)cc(O)c3c(=O)c2O)cc1 [KAEMPFERIDE] | 5.35 | 
COc1cc(C2Oc3cc(-c4oc5cc(O)c(C/C=C(\C)CCC=C(C)C)c(O)c5c(=O)c4O)ccc3OC2CO)ccc1O (centres undefined) | 6.74 | 83.3
O=C1C[C@@H](c2ccc(O)cc2)Oc2cc(O)cc(O)c21 [NARINGENIN] | 4.55 | 
O=C1c2c(O)cc(O)cc2O[C@H](c2ccc(O)c(O)c2)[C@H]1O |  | 101
COc1cc(C2Oc3cc(-c4oc5c(CC=C(C)C)c(O)cc(O)c5c(=O)c4O)ccc3OC2CO)ccc1O (centres undefined) | 6.60 | 93.4
COc1cc(C2Oc3cc(-c4oc5cc(O)cc(O)c5c(=O)c4O)ccc3OC2CO)ccc1O (centres undefined) |  | 91
COc1cc(C2Oc3cc(-c4oc5cc(O)c(CC=C(C)C)c(O)c5c(=O)c4O)ccc3OC2CO)ccc1O (centres undefined) | 6.43 | 90.3
COc1cc(C2Oc3cc(-c4oc5c(C/C=C(\C)CCC=C(C)C)c(O)cc(O)c5c(=O)c4O)ccc3OC2CO)ccc1O (centres undefined) | 6.92 | 88.1
